According to ChEMBL document CHEMBL2417420, “Autotaxin inhibition: development and application of computational tools to identify site-selective lead compounds” (Bioorg Med Chem, 2013):
One block for each molecule: values may come before it. Active and inactive are the calls of the source. The calls are words filed in the database; no cut-off is given here.

Columns and labels:
[1] = molecular target: T1, Autotaxin (Homo sapiens, UniProt Q13822); experiment: Inhibition of C-terminal FLAG-tagged human recombinant autotaxin using synthetic substrate FS-3 at 10 uM measured every 2 mins by FRET assay relative to control
[2] = molecular target: T1, Autotaxin; experiment: Inhibition of C-terminal FLAG-tagged human recombinant autotaxin using synthetic substrate FS-3 measured every 2 mins by FRET assay
[3] = molecular target: T1, Autotaxin; experiment: Competitive inhibition of C-terminal FLAG-tagged human recombinant autotaxin using synthetic substrate FS-3 by Michaelis-Menten equation analysis
[4] = test system: A2058; experiment: Reduction of autotaxin and lysophosphatidyl choline-induced cell migration in human A2058 cells at 30 uM after 4 to 48 hrs by monolayer scratch assay; format: functional; parameters: scale not given: the % may be the effect or the level left
[5] = test system: A2058; experiment: Reduction of cell migration in human A2058 cells at 30 uM after 4 to 48 hrs by monolayer scratch assay; format: functional; parameters: scale not given: the % may be the effect or the level left
[6] = test system: A2058; experiment: Reduction of autotaxin-induced cell migration in human A2058 cells at 30 uM after 4 to 48 hrs by monolayer scratch assay; format: functional; parameters: scale not given: the % may be the effect or the level left
[7] = test system: A2058; experiment: Cytotoxicity against human A2058 cells assessed as reduction lysophosphatidic acid-induced of cell proliferation at 30 uM after 24 hrs by MTS assay; format: functional; parameters: scale not given: the % may be the effect or the level left
[8] = test system: A2058; experiment: Reduction of lysophosphatidic acid-induced cell migration in human A2058 cells at 30 uM after 4 to 48 hrs by monolayer scratch assay; format: functional; parameters: scale not given: the % may be the effect or the level left
[9] = test system: A2058; experiment: Reduction of lysophosphatidyl choline-induced cell migration in human A2058 cells at 30 uM after 4 to 48 hrs by monolayer scratch assay; format: functional; parameters: scale not given: the % may be the effect or the level left
[10] = molecular target: T1, Autotaxin; experiment: Activation of C-terminal FLAG-tagged human recombinant autotaxin using paranitrophenyl thymidine monophosphate as substrate at 10 uM measured every 2 mins by […] assay
[11] = test system: A2058; experiment: Cytotoxicity against human A2058 cells assessed as reduction of cell number at 30 uM after 24 hrs by MTS assay; format: functional
[12] = molecular target: T1, Autotaxin; experiment: Activation of C-terminal FLAG-tagged human recombinant autotaxin using paranitrophenyl thymidine monophosphate as substrate measured every 2 mins by […] assay
[13] = test system: A2058; experiment: Cytotoxicity against human A2058 cells assessed as reduction lysophosphatidyl choline and autotaxin-induced of cell proliferation at 30 uM after 24 hrs by MTS assay; format: functional; parameters: scale not given: the % may be the effect or the level left
[14] = test system: A2058; experiment: Cytotoxicity against human A2058 cells assessed as reduction lysophosphatidyl choline-induced of cell proliferation at 30 uM after 24 hrs by MTS assay; format: functional; parameters: scale not given: the % may be the effect or the level left
[15] = molecular target: T1, Autotaxin; experiment: Inhibition of C-terminal FLAG-tagged human recombinant autotaxin using paranitrophenyl thymidine monophosphate as substrate at 10 uM measured every 2 mins by […] assay relative to control
[16] = test system: A2058; experiment: Cytotoxicity against human A2058 cells assessed as reduction autotaxin-induced of cell proliferation at 30 uM after 24 hrs by MTS assay; format: functional; parameters: scale not given: the % may be the effect or the level left

inhibition [1]: 63.8%
IC50 [2]: 1.1 µM
SMILES: COc1cc(CCNC(=O)c2ccc3c(c2)nc(-c2cccc4ccccc24)n3CCc2ccc(OC)c(OC)c2)cc(OC)c1

inhibition [1]: 68.6%
IC50 [2]: 3.8 µM
Ki [3]: 9.8 µM
SMILES: COc1cc(C2CC(=O)NC(SCC(=O)Nc3ccc(Br)cc3)=C2C#N)ccc1O (stereo not drawn)
Activity [4]: 60%
Activity [5]: 60%
Activity [6]: 61%
Activity [7]: 28%
Activity [8]: 57%
Activity [9]: 59%

Activity [10]: Active
SMILES: COc1ccc(OCCNC(=S)Nc2ccc(-c3ccccc3)cc2)cc1

inhibition [1]: 93.7%
IC50 [2]: 2.4 µM
SMILES: O=C(O)c1ccccc1-c1ccc(/C=C2/SC(=S)N(Cc3ccccc3)C2=O)o1

Activity [10]: Active
SMILES: CCOC(=O)C1=C(C)N=c2s/c(=C/c3cccc(OC)c3O)c(=O)n2[C@@H]1c1ccccc1

Activity [10]: Active
SMILES: O=C(O)c1cc(-c2ccc(/C=C3\S/C(=N\c4ccccc4)N(Cc4ccccc4)C3=O)o2)ccc1Cl

Activity [10]: Active
SMILES: CCOc1cc(/C=C2/SC(=S)N(Cc3ccccc3)C2=O)ccc1OC(=O)c1ccc(F)cc1

inhibition [1]: 64.7%
IC50 [2]: 1 µM
inhibition [15]: 10.6%
Ki [3]: 1.6 µM
SMILES: CC1CN(c2ccc(C(=O)N3CCCC3C(N)=O)cn2)CCC1C(=O)COc1cccc2ccccc12 (stereo not drawn)
Activity [13]: 27%
Activity [14]: 36%
Activity [4]: 25%
Activity [5]: 39%
Activity [6]: 34%
Activity [7]: 44%
Activity [11]: 49%
Activity [16]: 36%
Activity [8]: 30%
Activity [9]: 24%

Activity [10]: Active
SMILES: CCOC(=O)C1=C(C)N=c2s/c(=C/c3ccc(O)c(OC)c3)c(=O)n2[C@H]1c1cccc2ccccc12

Activity [10]: Active
SMILES: COc1cc(/C=C2/SC(=S)N(Cc3ccccc3)C2=O)ccc1OC(=O)c1ccco1

Activity [10]: Active
SMILES: COc1cc(/C=C2/SC(=S)N(Cc3ccccc3)C2=O)ccc1OC(=O)c1ccc(F)cc1

inhibition [1]: 85.3%
IC50 [2]: 0.9 µM
Ki [3]: 0.2 µM
EC50 [12]: 4.44 µM
SMILES: CC(O)C(NC(=O)c1ccc(N2CCC(CCCC3CCN(C(=O)Cc4ccc(-c5ccccc5)cc4)CC3)CC2)nc1)C(N)=O (stereo not drawn)
Activity [11]: Active

inhibition [1]: 68.8%
IC50 [2]: 4.4 µM
SMILES: O=C(O)c1ccc(-c2ccc(/C=C3/SC(=O)N(Cc4ccc(F)cc4)C3=O)o2)cc1

Activity [10]: Active
SMILES: COc1cc(/C=c2/sc3nc4ccccc4n3c2=O)cc(Br)c1OCc1ccccc1Cl

Activity [10]: Active
SMILES: CC(=O)Nc1ccc(S(=O)(=O)N/N=C/c2ccc(OCc3ccccc3)cc2)cc1

Activity [10]: Active
SMILES: CC(O)C(NC(=O)c1ccc(N2CCN(C(=O)Cc3cccc4ccccc34)CC2)nc1)C(N)=O (stereo not drawn)

inhibition [1]: 61.5%
IC50 [2]: 4.9 µM
SMILES: CCCc1ccc(S(=O)(=O)Oc2ccccc2-c2cc(CC)n(CCN3CCCCC3)n2)cc1

inhibition [1]: 62.3%
IC50 [2]: 6.2 µM
SMILES: CC(C)C1C(=O)Nc2cc(S(=O)(=O)NCc3ccccc3)ccc2N1C(=O)CN1CCCCC1 (stereo not drawn)

Activity [10]: Active
SMILES: O=C(Cn1c(=O)sc2cccc(Cl)c21)OCc1cccc(Oc2ccccc2)c1

inhibition [1]: 0%
SMILES: CCn1c2ccccc2c2cc(/C=C3\SC(=S)N([C@H](Cc4ccc(O)cc4)C(=O)O)C3=O)ccc21

inhibition [1]: 30%
SMILES: CCc1cc2c(cc3c(=O)n(CCCC(=O)NCc4ccc(Cl)cc4)ncn32)s1

inhibition [1]: 10%
SMILES: CC(CNC(=O)c1cc(-c2ccoc2)nc2ccccc12)C(=O)NCCNc1ccccc1 (stereo not drawn)

inhibition [1]: 30%
SMILES: CCN(C(=O)c1cccc(/C=C2\SC(=S)N([C@H](Cc3ccccc3)C(=O)O)C2=O)c1)c1ccccc1

Activity [10]: Active
SMILES: COC(=O)C1C(=O)NC(SCC(=O)Nc2ccc(C)cc2Br)=C(C#N)C1c1ccc(OC)cc1 (stereo not drawn)

inhibition [1]: 10%
SMILES: COc1ccc(CNC(=O)N2CC(O)C(N3CCN(c4ccccc4F)CC3)C2)cc1 (stereo not drawn)

inhibition [1]: 10%
SMILES: COc1cc(/C=N/NC(=O)c2ccc(CN3C(=O)c4cccc5cccc3c45)cc2)cc(Br)c1O

inhibition [1]: 30%
SMILES: CS(=O)(=O)N1CCC(N(C(=O)COc2ccccc2)C2CCC2)CC1c1cccc(F)c1 (stereo not drawn)

inhibition [1]: 30%
SMILES: O=C(NCC(O)CO)c1ccc2c(c1)nc(CN1CCC(N3CCCC3)CC1)n2CCc1ccccc1 (stereo not drawn)

inhibition [1]: 0%
SMILES: O=C(O)CN1C(=O)/C(=C/c2cccc(Oc3ccccc3)c2)S/C1=N\c1ccccc1

inhibition [1]: 30%
SMILES: Cc1[nH]c2ccccc2c1CC(=O)N1CCN(C(=O)c2ccccc2C(=O)c2ccc(Cl)cc2)CC1

inhibition [1]: 20%
SMILES: O=C(O)CN1C(=O)/C(=C/c2ccc(-c3ccc(Cl)cc3)o2)S/C1=N\c1ccccc1

The next lines start with the molecule.

SMILES: CC1CCC(C(C)C)C(OCC(=O)N2CCC(CCCC3CCN(c4ccc(C(=O)N5CCCC5C(N)=O)cc4)CC3)CC2)C1 (stereo not drawn)
inhibition [1]: 90.5%
IC50 [2]: 0.8 µM
Ki [3]: 0.1 µM
Activity [11]: Active
EC50 [12]: 2.79 µM

SMILES: CC(C)Cc1ccc(C(C)C(=O)N2CCC(CCCC3CCN(c4ccc(C(=O)NC(C(N)=O)C(C)O)cn4)CC3)CC2)cc1 (stereo not drawn)
inhibition [1]: 87.3%
IC50 [2]: 0.8 µM
Ki [3]: 0.8 µM
Activity [11]: Active
EC50 [12]: 4.31 µM

SMILES: COc1ccc(Cl)cc1NC(=O)CSC1=C(C#N)C(c2ccc(OC)c(OC)c2)CC(=O)N1 (stereo not drawn)
Activity [10]: Active

SMILES: CC(O)C(NC(=O)c1ccc(N2CCC(CCCC3CCN(C(=O)CCC(=O)c4ccccc4)CC3)CC2)nc1)C(N)=O (stereo not drawn)
inhibition [1]: 87.4%
IC50 [2]: 0.9 µM
Ki [3]: 0.5 µM
Activity [4]: 38%
Activity [6]: 33%
Activity [7]: 27%
Activity [16]: 30%
Activity [8]: 22%
Activity [9]: 28%

SMILES: Cc1cc(C)cc(CC(=O)N2CCC(CCCC3CCN(c4ccc(C(=O)NC(C(N)=O)C(C)O)cn4)CC3)CC2)c1 (stereo not drawn)
inhibition [1]: 83.2%
IC50 [2]: 0.9 µM
Ki [3]: 17.9 µM
Activity [5]: inactive
Activity [11]: inactive

SMILES: Cc1cc(C)cc(CC(=O)N2CCCN(c3ccc(C(=O)NC(C(N)=O)C(C)O)cn3)CC2)c1 (stereo not drawn)
inhibition [1]: 10%

SMILES: CC1CCC(C(C)C)C(OCC(=O)N2CCCN(c3ncccc3C(=O)N3CCCC3C(N)=O)CC2)C1 (stereo not drawn)
inhibition [1]: 20%

SMILES: CC(C)(C)c1cc(/C=C/C(=O)Nc2ccc(CNC(=O)C(C#N)=C3CCCCC3)cc2)cc(C(C)(C)C)c1O
inhibition [1]: 20%

SMILES: CCCCCCOc1ccc(/C=N/c2ccc(/N=C/c3ccc(OCCCCCC)cc3)c(Cl)c2)cc1
inhibition [1]: 0%

SMILES: CC(C)c1ccc(OCC(=O)N2CCN(c3ccc(C(=O)N4CCCC4C(N)=O)cn3)CC2C)cc1 (stereo not drawn)
inhibition [1]: 88.5%
IC50 [2]: 1.2 µM
inhibition [15]: 29.3%
Ki [3]: 1.6 µM
Activity [4]: 16%
Activity [5]: 43%
Activity [6]: 19%
Activity [11]: inactive
Activity [9]: 35%

SMILES: COc1ccc(-c2cc(C(=O)N/N=C/c3cc(OC)c(O)c(OC)c3)[nH]n2)cc1OC
inhibition [1]: 10%

SMILES: CCCSC1=C(C#N)C(c2cc(Br)c(O)c(OC)c2)CC(=O)N1 (stereo not drawn)
Activity [10]: Active

SMILES: O=C(NCCOCCO)c1ccc2c(c1)nc(CN1CCC(N3CCCC3)CC1)n2CC1CC1
inhibition [1]: 10%

SMILES: COc1cc(C2OCC3(CCCC4(COC(c5ccc(O)c(OC)c5)OC4)C3=O)CO2)ccc1O (stereo not drawn)
inhibition [1]: 30%

SMILES: CC(O)C(NC(=O)c1ccc(N2CCN(C(=O)Cc3ccc(O)cc3)CC2)nc1)C(N)=O (stereo not drawn)
inhibition [1]: 10%

SMILES: COc1cccc(CNC2CC(=O)N(c3ccc(N4C(=O)CC(NCc5cccc(OC)c5OC)C4=O)cc3)C2=O)c1OC (stereo not drawn)
inhibition [1]: 10%

SMILES: COc1cccc(CCNC(=O)c2ccc3c(c2)nc(-c2cc(OC)c(OC)c(OC)c2)n3CCc2ccc(OC)c(OC)c2)c1
inhibition [1]: 30%

SMILES: COc1cc(C(=O)NCCNc2nc3cc4c(cc3cc2C#N)OCO4)cc(OC)c1OC
inhibition [1]: 10%

SMILES: N#CC1CCCC(NC(=O)c2cccc(S(=O)(=O)Nc3ccc(Br)cc3)c2)C1 (stereo not drawn)
inhibition [1]: 0%

SMILES: Cc1ccc2[nH]c3nc(SCC(=O)NCc4ccc5c(c4)OCO5)nnc3c2c1
inhibition [1]: 10%

SMILES: COc1ccc(C2CC(=O)NC(SCC(=O)Nc3ccc(I)cc3)=C2C#N)cc1OC (stereo not drawn)
inhibition [1]: 20%

SMILES: O=C1Nc2ccc([N+](=O)[O-])cc2/C1=N/NC(=O)c1ccc(C(=O)N/N=C2\C(=O)Nc3ccc([N+](=O)[O-])cc32)cc1
inhibition [1]: 10%

SMILES: O=C(O)[C@@H](Cc1ccccc1)N1C(=O)/C(=C/c2cccc(Oc3ccc(Cl)cc3)c2)SC1=S
inhibition [1]: 10%

SMILES: CC(O)C(NC(=O)c1ccc(N2CCCN(C(=O)CCC(=O)c3ccccc3)CC2)nc1)C(N)=O (stereo not drawn)
inhibition [1]: 20%
